The record followed here is publication PMC10065791 (eLife, 2023).

In one assay the target is T1, wild-type NL4-3 protease (Human immunodeficiency virus type 1 group M subtype B, UniProt P12497, Q495K).
T1 construct: the gene encoding the desired HIV-1 protease was subcloned into the heat-inducible pXC35 expression vector; made in house
Kind of assay: Ki assay (FRET enzyme inhibition), wild-type protease. The conditions noted are these: limit of detection 5 pM, read-out: Ki WT. The class given is biochemical, HIV-1. As for the experimental part: (§1) The highly mutated, resistant, protease variant genes were purchased on a pET11a plasmid with codon optimization for protein expression in Escherichia coli (Genewiz). A Q7K mutation was included to prevent autoproteolysis ([Rosé et al., 1993]). The expression, isolation, and purification of WT and mutant HIV-1 proteases used for enzymatic assays were carried out as previously described ([Henes et al., 2019]; [King et al., 2002]; [Özen et al., 2014]). Briefly, the gene encoding the desired HIV-1 protease was subcloned into the heat-inducible pXC35 expression vector (ATCC) and transformed into E. coli TAP-106 cells. Cells grown in 6 l of Terrific Broth were lysed with a cell disruptor twice, and the protein was purified from inclusion bodies ([Hui et al., 1993]). Inclusion bodies, isolated as a pellet after centrifugation, were dissolved in 50% acetic acid followed by another round of centrifugation at 19,000 rpm for 30 min to remove insoluble impurities. Size-exclusion chromatography was carried out on a 2.1 l Sephadex G-75 Superfine (Sigma Chemical) column equilibrated with 50% acetic acid to separate high molecular weight proteins from the desired protease. Pure fractions of HIV-1 protease were refolded using a tenfold dilution of refolding buffer (0.05 M sodium acetate at pH 5.5, 5% ethylene glycol, 10% glycerol, and 5 µM DTT). Folded protein was concentrated to 0.5–3 mg/ml and stored. The stored protease was used in KM and Ki assays.
(§2) Enzyme inhibition constants (Ki values) were determined as previously described ([Henes et al., 2019]; [Lockbaum et al., 2019]; [Matayoshi et al., 1990]; [Windsor and Raines, 2015]). Briefly, in a 96-well plate, inhibitors were serially diluted down from […] depending on protease resistance. All samples were incubated with 5 nM protein for 1 hr. A 10-amino acid substrate containing an optimized protease cleavage site ([Windsor and Raines, 2015]), purchased from Bachem, with an EDANS/DABCYL FRET pair was dissolved in 4% DMSO at 120 µM. Using a PerkinElmer Envision plate reader, 5 µl of the 120 µM substrate were added to the 96-well plate to a final concentration of 10 µM. […] Data was analyzed with Prism7.

The target of assay [1] is T2, I50V/A71V mutant protease (Human immunodeficiency virus type 1 group M subtype B, UniProt P12497, A559V/I538V/Q495K).
T2 construct: the gene encoding the desired HIV-1 protease was subcloned into the heat-inducible pXC35 expression vector; made in house
Nature of the assay: Ki assay (FRET enzyme inhibition), I50V/A71V protease. The class given is biochemical, HIV-1. The conditions noted are these: I50V/A71V drug-resistant protease variant. As for the experimental part:
as §1, §2

In another assay the target is T3, I84V mutant protease (Human immunodeficiency virus type 1 group M subtype B, UniProt P12497, I572V/Q495K).
T3 construct: the gene encoding the desired HIV-1 protease was subcloned into the heat-inducible pXC35 expression vector; made in house
Nature of the assay: Ki assay (FRET enzyme inhibition), I84V protease. The class given is biochemical, HIV-1. The conditions noted are these: I84V drug-resistant protease variant. As to the method:
as §1, §2

Assay [2] relates to virus pool selected to 5000 nM inhibitor. Kind of assay: TZM infection assay, inhibitor-selected resistant virus pools. The class given is cell-based, HIV-1. The conditions noted are these: Human immunodeficiency virus 1, read-out: EC50 Viral culture (5000 nM); final virus pool selected with the same inhibitor to 5000 nM; highest level recorded 100 µM. As for the experimental part:
In addition to the sequence of the terminally selected virus, we validated that selection occurred over the entire course of the selection protocol. […] In comparing the number of mutations present in cultures using the I84V versus the I50V pathway, we noted that on average there were more mutations in the I50V viruses at the intermediate drug concentration compared to the I84V viruses (100 nM, p=0.03), and this trend continued at the higher drug concentration.
An aliquot of 3 × 10^6 CEMx174 cells was incubated at 37°C for 2–3 hr with 250 µl of a virus stock generated from the HIV-1 infectious molecular clone pNL4-3. The culture volume was then brought to 10 ml with RPMI medium. […] After 48 hr and every 48 hr after, the cells were pelleted by centrifugation and 10 ml of fresh medium and inhibitors were added. When the culture had undergone extensive cytopathic effect (CPE) indicative of viral replication, the supernatant medium and the cells were harvested separately and stored at –80°C. The virus-containing supernatant was used to start the next round of infection, and after several rounds at the initial concentration, the inhibitor concentration was increased 1.5-fold at each subsequent round of virus passage.
PI dilutions were prepared by taking 10 µM stocked and performing a fivefold serial dilution using RPMI media (final drug concentration is […]). One dilution of drug was added to each well of a 24-well plate and repeated so each virus would have a full set of dilutions. Viruses for the assay were made by seeding 3 × 10^6 CEM cells in a 24-well plate and incubating with 250 µl of virus at 37°C for 2–3 hr before bringing the culture to 10 ml with RPMI media. After 48 hr, the medium was changed and repeated every 48 hr after until the culture had undergone CPE. Infected CEM cells were collected and diluted so that 1 ml of cells could be plated in each well containing a unique drug dilution. Then 24 hr later the virus supernatant was collected from each well followed by filtering through a […] then placed in –80°C. Viruses were thawed and added to 96-well plates in triplicate. TZM-bl cells were collected and diluted to a concentration of 2 × 10^5 cells/ml, 100 µl were added on top of the pre-plated viruses. Plates were kept in 37°C, 5% CO2 in an incubator for 48 hr. After 48 hr, the cells in the plates were lysed by removing the medium, washing two times with 100 µl PBS, and then lysed with 1× lysis buffer (made from 5× Promega Firefly Lysis Buffer). Plates were frozen for at least 24 hr and then thawed for 2 hr before analyzing with Promega Firefly Luciferase Kit on a luminometer. Data was analyzed with Prism 7 to fit sigmoidal dose–response curves.

What is called Ki is a measure of affinity in units of concentration, obtained from inhibition or displacement. A word on the EC50: it is the concentration giving half of the maximal effect. With `CC[C@H](C)CN(C[C@@H](O)[C@H](Cc1ccccc1)NC(=O)O[C@H]1CO[C@H]2OCC[C@H]21)S(=O)(=O)c1ccc(CO)cc1` [UMASS-3], the Ki at wild-type NL4-3 protease was less than 0.005 nM; in assay [1], 0.0799 ± 0.0059 nM; at I84V mutant protease it was 0.0099 ± 0.0027 nM. Further, the EC50 in assay [2] was 14800 nM.

Turning to `CC[C@H](C)CN(C[C@@H](O)[C@H](Cc1ccccc1)NC(=O)O[C@H]1CO[C@H]2OCC[C@H]21)S(=O)(=O)c1ccc2c(c1)OCO2` [UMASS-4], the Ki on wild-type NL4-3 protease is less than 0.005 nM; in assay [1], 0.0329 ± 0.003 nM; at I84V mutant protease, 0.0105 ± 0.0018 nM. The EC50 in assay [2] turned out to be 13700 nM.

On to `CC[C@H](C)CN(C[C@@H](O)[C@H](Cc1ccccc1)NC(=O)O[C@H]1CO[C@H]2OCC[C@H]21)S(=O)(=O)c1ccc2ncsc2c1` [UMASS-5], for which the results for the Ki (on wild-type NL4-3 protease; in assay [1]; on I84V mutant protease) were less than 0.005 nM, 0.0078 ± 0.0009 nM and 0.007 ± 0.0017 nM, respectively. In assay [2], the EC50 was greater than 100000 nM.

Consider `CCC(CC)CN(C[C@@H](O)[C@H](Cc1ccccc1)NC(=O)O[C@H]1CO[C@H]2OCC[C@H]21)S(=O)(=O)c1ccc(OC)cc1` [UMASS-7], for which the results for the Ki (on wild-type NL4-3 protease; in assay [1]; on I84V mutant protease) were less than 0.005 nM, 0.0182 ± 0.003 nM and 0.0121 ± 0.0045 nM, respectively.

Consider `CCC(CC)CN(C[C@@H](O)[C@H](Cc1ccccc1)NC(=O)O[C@H]1CO[C@H]2OCC[C@H]21)S(=O)(=O)c1ccc2c(c1)OCO2` [UMASS-9], for which the inhibition constant Ki at wild-type NL4-3 protease is less than 0.005 nM; in assay [1], 0.0423 ± 0.0026 nM; at I84V mutant protease, 0.0076 ± 0.0016 nM. Further, in assay [2], the EC50 is greater than 100000 nM.
